Test results from ChEMBL document CHEMBL4819025, “Natural Piperine Improves Lipid Metabolic Profile of High-Fat Diet-Fed Mice by Upregulating SR-B1 and ABCG8 Transporters” (J Nat Prod, 2021).
Active and inactive are the calls of the source. The rule behind the calls is not given here.

What was measured:
HepG2 [1] = test: Hypolipidemic activity in human HepG2 cells assessed as reduction in FFA-induced intracellular fat deposition at 10 uM after 24 hrs by Oil Red O staining based assay; format: functional, cell-based
[2] = Upregulation of ABCG8 protein expression in high-fat diet fed mouse small intestine at 25 mg/kg, po by Western blotting analysis; format: functional
Mus musculus [3] = test: Effect on ABCG5 protein expression level in high-fat diet fed mouse small intestine at 25 mg/kg, po by Western blotting analysis; format: functional, organism-based
Mus musculus [4] = test: Upregulation of ABCG8 mRNA expression in high-fat diet fed mouse liver at 25 mg/kg/day by qRT-PCR analysis; format: functional, organism-based
[5] = Toxicity in high fat diet-induced ICR mouse model of hyperlipidemia assessed as change in stomach weight at 25 mg/kg, ig administered once daily for 8 weeks by H and E staining based microscopic analysis; format: organism-based; details: in vivo, po, 1344 h
Mus musculus [6] = test: Hypolipidemic activity in high fat diet-induced ICR mouse hyperlipidemic model assessed as reduction in TG level in liver at 25 mg/kg, ig administered once daily for 8 weeks by H and E staining based microscopic analysis; format: functional, organism-based
Mus musculus [7] = test: Effect on ABCA1 mRNA expression level in high-fat diet fed mouse small intestine at 25 mg/kg, po by qRT-PCR analysis; format: functional, organism-based
[8] = Toxicity in high fat diet-induced ICR mouse model of hyperlipidemia assessed as change in spleen weight at 25 mg/kg, ig administered once daily for 8 weeks by H and E staining based microscopic analysis; format: organism-based; details: in vivo, po, 1344 h
[9] = Toxicity in high fat diet-induced ICR mouse model of hyperlipidemia assessed as change in kidney weight at 25 mg/kg, ig administered once daily for 8 weeks by H and E staining based microscopic analysis; format: organism-based; details: in vivo, po, 1344 h
HepG2 [10] = test: Cytotoxicity against human HepG2 cells assessed as reduction in cell viability at 1 to 100 uM after 24 hrs by CCK8 assay; format: cell-based; details: hepg2, 24 h, dose 1-100 µM
Mus musculus [11] = test: Effect on SR-B1 protein expression level in high-fat diet fed mouse small intestine at 25 mg/kg, po by Western blotting analysis; format: functional, organism-based
Mus musculus [12] = test: Effect on ABCG5 mRNA expression level in high-fat diet fed mouse small intestine at 25 mg/kg, po by qRT-PCR analysis; format: functional, organism-based
Mus musculus [13] = test: Hypolipidemic activity in high fat diet-induced ICR mouse hyperlipidemic model assessed as reduction in plasma TG level at 25 mg/kg, ig administered once daily for 8 weeks; format: functional; parameters: scale not given: the % may be the effect or the level left
Mus musculus [14] = test: Effect on ABCA1 protein expression level in high-fat diet fed mouse liver at 25 mg/kg/day by Western blotting analysis; format: functional, organism-based
Mus musculus [15] = test: Hypolipidemic activity in high fat diet-induced ICR mouse hyperlipidemic model assessed as reduction in TC level in liver at 25 mg/kg, ig administered once daily for 8 weeks by H and E staining based microscopic analysis; format: functional, organism-based
Mus musculus [16] = test: Hypolipidemic activity in normal diet fed ICR mouse assessed as alteration in plasma LDL-C level at 25 mg/kg, ig administered once daily for 8 weeks; format: functional, organism-based
Mus musculus [17] = test: Effect on ABCA1 protein expression level in high-fat diet fed mouse small intestine at 25 mg/kg, po by Western blotting analysis; format: functional, organism-based
Mus musculus [18] = test: Effect on SR-B1 mRNA expression level in high-fat diet fed mouse small intestine at 25 mg/kg, po by qRT-PCR analysis; format: functional, organism-based
Mus musculus [19] = test: Effect on ABCG1 protein expression level in high-fat diet fed mouse liver at 25 mg/kg/day by Western blotting analysis; format: functional, organism-based
Mus musculus [20] = test: Hypolipidemic activity in normal diet fed ICR mouse assessed as alteration in plasma TG level at 25 mg/kg, ig administered once daily for 8 weeks; format: functional, organism-based
Mus musculus [21] = test: Hypolipidemic activity in high fat diet-induced ICR mouse hyperlipidemic model assessed as increase in plasma HDL-C level at 25 mg/kg, ig administered once daily for 8 weeks; format: functional, organism-based
Mus musculus [22] = test: Effect on ABCG1 mRNA expression level in high-fat diet fed mouse liver at 25 mg/kg/day by qRT-PCR analysis; format: functional, organism-based
Mus musculus [23] = test: Effect on NPC1 mRNA expression level in high-fat diet fed mouse liver at 25 mg/kg/day by qRT-PCR analysis; format: functional, organism-based
[24] = Toxicity in high fat diet-induced ICR mouse model of hyperlipidemia assessed as change in lung weight at 25 mg/kg, ig administered once daily for 8 weeks by H and E staining based microscopic analysis; format: organism-based; details: in vivo, po, 1344 h
Mus musculus [25] = test: Effect on ABCG5 mRNA expression level in high-fat diet fed mouse liver at 25 mg/kg/day by qRT-PCR analysis; format: functional, organism-based
Mus musculus [26] = test: Effect on ABCG8 protein expression level in high-fat diet fed mouse liver at 25 mg/kg/day by Western blotting analysis; format: functional, organism-based
[27] = Toxicity in high fat diet-induced ICR mouse model of hyperlipidemia assessed as change in hepatic morphology at 25 mg/kg, ig administered once daily for 8 weeks by H and E staining based microscopic analysis; format: organism-based; details: in vivo, po, 1344 h
Mus musculus [28] = test: Hypolipidemic activity in high fat diet-induced ICR mouse hyperlipidemic model assessed as reduction in fat accumulation in liver at 25 mg/kg, ig administered once daily for 8 weeks by H and E staining based microscopic analysis; format: functional, organism-based
Mus musculus [29] = test: Effect on NPC1L1 protein expression level in high-fat diet fed mouse small intestine at 25 mg/kg, po by Western blotting analysis; format: functional, organism-based
Mus musculus [30] = test: Effect on NPC1L1 protein expression level in high-fat diet fed mouse liver at 25 mg/kg/day by Western blotting analysis; format: functional, organism-based
[31] = Toxicity in high fat diet-induced ICR mouse model of hyperlipidemia assessed as change in liver weight at 25 mg/kg, ig administered once daily for 8 weeks by H and E staining based microscopic analysis; format: organism-based; details: in vivo, po, 1344 h
Mus musculus [32] = test: Hypolipidemic activity in normal diet fed ICR mouse assessed as alteration in plasma TC level at 25 mg/kg, ig administered once daily for 8 weeks; format: functional, organism-based
Mus musculus [33] = test: Upregulation of SR-B1 protein expression level in high-fat diet fed mouse liver at 25 mg/kg/day by Western blotting analysis; format: functional, organism-based
HepG2 [34] = test: Hypolipidemic activity in human HepG2 cells assessed as reduction in FFA-induced lipid accumulation incubated for 24 hrs by Oil Red O staining based assay; format: functional, cell-based; details: dose 10-100 µM
Mus musculus [35] = test: Hypolipidemic activity in high fat diet-induced ICR mouse hyperlipidemic model assessed as reduction in plasma TC level at 25 mg/kg, ig administered once daily for 8 weeks; format: functional; parameters: scale not given: the % may be the effect or the level left
Mus musculus [36] = test: Hypolipidemic activity in normal diet fed ICR mouse assessed as reduction in TG level in liver at 25 mg/kg, ig administered once daily for 8 weeks by H and E staining based microscopic analysis; format: functional, organism-based
HepG2 [37] = test: Hypolipidemic activity in human HepG2 cells assessed as reduction in FFA-induced intracellular fat deposition at 50 to 100 uM after 24 hrs by Oil Red O staining based assay; format: functional; parameters: scale not given: the % may be the effect or the level left; details: dose 50-100 µM
Mus musculus [38] = test: Effect on ABCG5 protein expression level in high-fat diet fed mouse liver at 25 mg/kg/day by Western blotting analysis; format: functional, organism-based
Mus musculus [39] = test: Hypolipidemic activity in high fat diet-induced ICR mouse hyperlipidemic model assessed as reduction in plasma LDL-C level at 25 mg/kg, ig administered once daily for 8 weeks; format: functional; parameters: scale not given: the % may be the effect or the level left
HepG2 [40] = test: Hypolipidemic activity in human HepG2 cells assessed as reduction in FFA-induced TG accumulation after 24 hrs; format: functional, cell-based; details: dose 10-100 µM
Mus musculus [41] = test: Hypolipidemic activity in normal diet fed ICR mouse assessed as alteration in plasma HDL-C level at 25 mg/kg, ig administered once daily for 8 weeks; format: functional, organism-based
[42] = Upregulation of […] expression in high-fat diet fed mouse small intestine assessed as fold increase at 25 mg/kg, po by qRT-PCR analysis; format: functional
[43] = Toxicity in high fat diet-induced ICR mouse model of hyperlipidemia assessed as change in heart weight at 25 mg/kg, ig administered once daily for 8 weeks by H and E staining based microscopic analysis; format: organism-based; details: in vivo, po, 1344 h
[44] = Toxicity in high fat diet-induced mouse model of hyperlipidemia assessed as change in body weight at 25 mg/kg, ig administered once daily for 8 weeks; format: organism-based; details: in vivo, po, 1344 h
Mus musculus [45] = test: Effect on NPC1 mRNA expression level in high-fat diet fed mouse small intestine at 25 mg/kg, po by qRT-PCR analysis; format: functional, organism-based
Mus musculus [46] = test: Hypolipidemic activity in normal diet fed ICR mouse assessed as reduction in TC level in liver at 25 mg/kg, ig administered once daily for 8 weeks by H and E staining based microscopic analysis; format: functional, organism-based
Mus musculus [47] = test: Effect on SR-B1 mRNA expression level in high-fat diet fed mouse liver at 25 mg/kg/day by qRT-PCR analysis; format: functional, organism-based
Mus musculus [48] = test: Effect on ABCA1 mRNA expression level in high-fat diet fed mouse liver at 25 mg/kg/day by qRT-PCR analysis; format: functional, organism-based
[49] = Toxicity in high fat diet-induced mouse model of hyperlipidemia assessed as change in food intake at 25 mg/kg, ig administered once daily for 8 weeks; format: organism-based; details: in vivo, po, 1344 h

Structure (SMILES): CC(C)c1c(C(=O)Nc2ccccc2)c(-c2ccccc2)c(-c2ccc(F)cc2)n1CC[C@@H](O)C[C@@H](O)CC(=O)O
- Activity (HepG2 [1]): Active

Structure (SMILES): O=C(/C=C/C=C/c1ccc2c(c1)OCO2)N1CCCCC1 [PIPERINE]
- Activity [2]: 80%
- Activity (Mus musculus [3]): inactive
- Activity (Mus musculus [4]): Active
- Activity [5]: Non-Toxic
- Activity (Mus musculus [6]): Active
- Activity (Mus musculus [7]): inactive
- Activity [8]: Non-Toxic
- Activity [9]: Non-Toxic
- Activity (HepG2 [10]): Non-Toxic
- Activity (Mus musculus [11]): inactive
- Activity (Mus musculus [12]): inactive
- Activity (Mus musculus [13]): 43.6%
- Activity (Mus musculus [14]): inactive
- Activity (Mus musculus [15]): Active
- Activity (Mus musculus [16]): inactive
- Activity (Mus musculus [17]): inactive
- Activity (Mus musculus [18]): inactive
- Activity (Mus musculus [19]): inactive
- Activity (Mus musculus [20]): inactive
- Activity (Mus musculus [21]): Active
- Activity (Mus musculus [22]): inactive
- Activity (Mus musculus [23]): inactive
- Activity [24]: Non-Toxic
- Activity (Mus musculus [25]): inactive
- Activity (Mus musculus [26]): inactive
- Activity [27]: Non-Toxic
- Activity (Mus musculus [28]): Active
- Activity (Mus musculus [29]): inactive
- Activity (Mus musculus [30]): inactive
- Activity [31]: Non-Toxic
- Activity (Mus musculus [32]): inactive
- Activity (Mus musculus [33]): Active
- Activity (HepG2 [34]): Dose-Dependent Effect
- Activity (Mus musculus [35]): 27.5%
- Activity (Mus musculus [36]): inactive
- Activity (HepG2 [37]): 36%
- Activity (Mus musculus [38]): inactive
- Activity (Mus musculus [39]): 34.4%
- Activity (HepG2 [40]): Dose-Dependent Effect
- Activity (Mus musculus [41]): inactive
- fold change (FC) [42]: 1.8
- Activity [43]: Non-Toxic
- Activity [44]: Non-Toxic
- Activity (Mus musculus [45]): inactive
- Activity (Mus musculus [46]): inactive
- Activity (Mus musculus [47]): inactive
- Activity (Mus musculus [48]): inactive
- Activity [49]: Non-Toxic
